Experimental data: patent US10159249B2 (BAYER CROPSCIENCE AKTIENGESELLSCHAFT, priority 2013, dated 2018)

What was measured:
Euphorbia heterophylla = test: Field trial, weed efficacy, post applied; format: in vivo; conditions: Atrazine 1000 g ai/ha; application at 5 leaf stage; assessment 14 days after application
PfHPPDEvo40 = PfHPPDEvo40 (Pseudomonas sp., UniProt P80064, A172V/A339E/A53E/D148E/D45N/E105D/E287Q/E300V/E334P/F143Y/G286D/G335S/H150N/H254A/H63N/I158V/I187A/I249V/K92N/L18F/N24G/N280D/S245T/S257K/S301E/T205S/V65I); test: Brown color assay, HPPD inhibitor tolerance of E. coli HPPD extracts; conditions: extract titrated on 250 uM inhibitor; brown pigment formation
Amaranthus retroflexus = conditions: Glufosinate-ammonium 500 g ai/ha; application at 6 leaf stage; assessment 14 days after application
[1] = test system: Ipomoea aristolochiaefolia; conditions: Glyphosate 960 g ai/ha; application at 6 leaf stage; assessment 14 days after application
Digitaria horizontalis = test: Field trial, weed efficacy, post applied; format: in vivo; conditions: application at 2 tillers, assessment 14 days after application

PfHPPDEvo40, sequence (P80064 other isoform, or with tags, fused parts or gaps with the stated changes): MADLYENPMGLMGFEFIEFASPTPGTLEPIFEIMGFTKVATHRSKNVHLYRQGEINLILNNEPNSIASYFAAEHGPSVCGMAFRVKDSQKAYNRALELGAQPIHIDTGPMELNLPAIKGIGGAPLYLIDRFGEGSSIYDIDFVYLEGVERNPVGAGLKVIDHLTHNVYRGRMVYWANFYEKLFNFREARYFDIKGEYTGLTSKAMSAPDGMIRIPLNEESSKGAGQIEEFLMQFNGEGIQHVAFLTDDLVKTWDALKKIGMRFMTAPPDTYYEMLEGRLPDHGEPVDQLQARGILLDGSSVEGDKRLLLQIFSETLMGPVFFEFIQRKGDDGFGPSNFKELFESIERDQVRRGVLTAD

CCNc1nc(Cl)nc(NC(C)C)n1 [Atrazine, reference compound]
Efficacy (%) Euphorbia heterophylla (Euphorbia heterophylla): 74%

CS(=O)(=O)c1cc(C(F)(F)F)ccc1C(=O)C(C#N)C(=O)C1CC1 (stereo not shown) [DKN, diketonitrile]
tolerance of variant PfHPPDEvo40 to the inhibitor compared to PfHPPD336W (PfHPPDEvo40): improved tolerance

CP(=O)(O)CCC(N)C(=O)O (stereo not shown) [Glufosinate-ammonium, reference compound]
Efficacy (%) Amaranthus retroflexus (Amaranthus retroflexus): 33%

O=C(O)CNCP(=O)(O)O [Glyphosate, reference compound]
Efficacy (%) Ipomoea aristolochiaefolia [1]: 70%

CSc1nnc(C(C)(C)C)c(=O)n1N [Metribuzin]
Efficacy (%) Digitaria horizontalis (Digitaria horizontalis; Metribuzin 240 g ai/ha): 15%
Efficacy (%) Digitaria horizontalis (Digitaria horizontalis; Metribuzin 480 g ai/ha): 35%

CS(=O)(=O)c1ccc(C(=O)C2C(=O)CCCC2=O)c(Cl)c1COCC(F)(F)F [TBT, tembotrione]
tolerance of variant PfHPPDEvo40 to the inhibitor compared to PfHPPD336W (PfHPPDEvo40): improved tolerance
